Source: patent US11739074B2, “Ras inhibitors” (Revolution Medicines, Inc., priority 2019, dated 2023)

Experiments:
KRAS G12D = KRAS G12D (Homo sapiens, UniProt P01116+P62937, G12D); experiment: Ras-Raf disruption/FRET/MOA assay, KRAS G12D; assay type: biochemical; conditions: disruption of BRAF RBD binding, with Cyclophilin A; read-out: KRAS G12D FRET IC50
Summary of the method: (§1)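 His6-KRAS-GMPPNP (12.5 nM) was combined with tagless Cyclophilin A (25 μM) and GST-BRAF^RBD (50 nM) in pH 7.3 HEPES buffer with NaCl, MgCl2, Tween20 and BSA. Compound was tested as a 10-point 3-fold series from 30 μM final, 3 h at 25° C. Disruption was read as a drop in TR-FRET ratio versus DMSO.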

KRAS Q61H = KRAS Q61H (Homo sapiens, UniProt P01116+P62937, Q61H); experiment: Ras-Raf disruption/FRET/MOA assay, KRAS Q61H; assay type: biochemical; conditions: KRAS Q61H; read-out: KRAS Q61H FRET data IC50
Excerpt: (§2) Disruption of B-Raf Ras-Binding Domain (BRAF^RBD) Interaction with K-Ras by Compounds of the Invention (Also Called a FRET Assay or an MOA Assay)
(§3) Note—The following protocol describes a procedure for monitoring disruption of K-Ras G12C (GMP-PNP) binding to BRAF^RBD by a compound of the invention. This protocol may also be executed substituting other Ras proteins or nucleotides, such as K-Ras G12D and K-Ras G13D.
(§4) The purpose of this biochemical assay was to measure the ability of test compounds to facilitate ternary complex formation between a nucleotide-loaded K-Ras isoform and Cyclophilin A; the resulting ternary complex disrupts binding to a BRAF^RBD construct, inhibiting K-Ras signaling through a RAF effector.
(§5) In assay buffer containing 25 mM HEPES pH 7.3, 0.002% Tween20, 0.1% BSA, 100 mM NaCl and 5 mM MgCl2, tagless Cyclophilin A, His6-K-Ras-GMPPNP, and GST-BRAF^RBD were combined in a 384-well assay plate at final concentrations of 25 μM, 12.5 nM, and 50 nM, respectively. Compound was present in plate wells as a 10-point 3-fold dilution series starting at a final concentration of 30 μM. After incubation at 25° C. for 3 hours, a mixture of anti-His Eu-W1024 and anti-GST allophycocyanin was then added to assay sample wells at final concentrations of 10 nM and 50 nM, respectively, and the reaction incubated for an additional 1.5 hours. […] Compounds that facilitate disruption of a K-Ras:RAF complex were identified as those eliciting a decrease in the TR-FRET ratio relative to DMSO control wells.

AsPC-1 (K-Ras G12D) [1] = experiment: Potency assay: pERK in AsPC-1 cells; assay type: cell-based; conditions: Homo sapiens, ASPC1; AsPC-1 cells, K-Ras G12D; read-out: pERK EC50 (AsPC-1 KRAS G12D)
NCI-H358 (K-Ras G12C) = experiment: CellTiter-Glo cell viability assay, H358; assay type: cell-based; conditions: Homo sapiens, NCI-H358, 120 h, NCI-H358, K-Ras G12C, 5-day treatment; read-out: H358 Cell Viability IC50
Summary of the method: (§6)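 Luminescence from CellTiter-Glo serves as the viability read-out after cells are treated with compound for 5 days. Each well's signal is divided by the DMSO average and multiplied by 100, and curves are fitted by four-parameter logistic regression.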

AsPC-1 (K-Ras G12D) [2] = experiment: CellTiter-Glo cell viability assay, AsPC-1; assay type: cell-based; conditions: Homo sapiens, ASPC1, 120 h, AsPC-1, K-Ras G12D, 5-day treatment; read-out: AsPC-1 Cell Viability IC50
Summary of the method: as §6

KRAS WT = KRAS WT (Homo sapiens, UniProt P01116+P62937); experiment: Ras-Raf disruption/FRET/MOA assay, KRAS WT; assay type: biochemical; conditions: disruption of BRAF RBD binding, with Cyclophilin A; read-out: KRAS WT FRET IC50
Summary of the method: as §1

KRAS G13D = KRAS G13D (Homo sapiens, UniProt P01116+P62937, G13D); experiment: Ras-Raf disruption/FRET/MOA assay, KRAS G13D; assay type: biochemical; conditions: disruption of BRAF RBD binding, with Cyclophilin A; read-out: KRAS G13D FRET IC50
Summary of the method: as §1

NRAS Q61K = target: T1, NRAS Q61K (Homo sapiens, UniProt P01111+P62937, Q61K); experiment: Ras-Raf disruption/FRET/MOA assay, NRAS Q61K; assay type: biochemical; conditions: NRAS Q61K; read-out: NRAS Q61K FRET data IC50
T1 construct: His6
Excerpt: as §2, §3, §4, §5

KRAS G13C = KRAS G13C (Homo sapiens, UniProt P01116+P62937, G13C); experiment: Ras-Raf disruption/FRET/MOA assay, KRAS G13C; assay type: biochemical; conditions: disruption of BRAF RBD binding, with Cyclophilin A; read-out: KRAS G13C FRET IC50
Summary of the method: as §1

KRAS G12C = KRAS G12C (Homo sapiens, UniProt P01116+P62937, G12C); experiment: Ras-Raf disruption/FRET/MOA assay, KRAS G12C; assay type: biochemical; conditions: disruption of BRAF RBD binding, with Cyclophilin A; read-out: KRAS G12C FRET IC50
Summary of the method: as §1

KRAS G12V = KRAS G12V (Homo sapiens, UniProt P01116+P62937, G12V); experiment: Ras-Raf disruption/FRET/MOA assay, KRAS G12V; assay type: biochemical; conditions: disruption of BRAF RBD binding, with Cyclophilin A; read-out: KRAS G12V FRET IC50
Summary of the method: as §1

NRAS Q61R = target: T2, NRAS Q61R (Homo sapiens, UniProt P01111+P62937, Q61R); experiment: Ras-Raf disruption/FRET/MOA assay, NRAS Q61R; assay type: biochemical; conditions: NRAS Q61R; read-out: NRAS Q61R FRET data IC50
T2 construct: His6
Excerpt: as §2, §3, §4, §5

KRAS G12S = KRAS G12S (Homo sapiens, UniProt P01116+P62937, G12S); experiment: Ras-Raf disruption/FRET/MOA assay, KRAS G12S; assay type: biochemical; conditions: disruption of BRAF RBD binding, with Cyclophilin A; read-out: KRAS G12S FRET IC50
Summary of the method: as §1

NRAS WT = target: T3, NRAS WT (Homo sapiens, UniProt P01111+P62937); experiment: Ras-Raf disruption/FRET/MOA assay, NRAS WT; assay type: biochemical; conditions: NRAS WT; read-out: NRAS WT FRET data IC50
T3 construct: His6
Excerpt: as §2, §3, §4, §5

NRAS G12C = target: T4, NRAS G12C (Homo sapiens, UniProt P01111+P62937, G12C); experiment: Ras-Raf disruption/FRET/MOA assay, NRAS G12C; assay type: biochemical; conditions: NRAS G12C; read-out: NRAS G12C FRET data IC50
T4 construct: His6
Summary of the method: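 Disruption of Ras:RAF binding was read as a drop in TR-FRET ratio versus DMSO controls. The buffer was 25 mM HEPES pH 7.3, 0.002% Tween20, 0.1% BSA, 100 mM NaCl and 5 mM MgCl2. Compounds were tested as a 10-point 3-fold dilution series from 30 μM. Detection used 10 nM anti-His Eu-W1024 and 50 nM anti-GST allophycocyanin.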

T4 sequence (P01111 whole entry G12C): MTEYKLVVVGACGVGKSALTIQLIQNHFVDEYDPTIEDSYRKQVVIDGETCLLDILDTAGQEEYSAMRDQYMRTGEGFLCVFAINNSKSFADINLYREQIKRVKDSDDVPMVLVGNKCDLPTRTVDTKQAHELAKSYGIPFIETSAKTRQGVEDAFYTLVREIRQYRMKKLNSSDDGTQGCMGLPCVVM
T4 sequence (P62937 whole entry): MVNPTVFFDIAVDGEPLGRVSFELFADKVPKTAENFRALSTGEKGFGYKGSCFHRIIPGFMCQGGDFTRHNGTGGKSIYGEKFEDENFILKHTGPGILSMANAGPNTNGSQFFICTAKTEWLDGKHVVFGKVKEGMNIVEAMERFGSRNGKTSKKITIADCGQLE
Chain of KRAS G12D (P01116 1-169 isoform P01116-2 G12D limits assumed): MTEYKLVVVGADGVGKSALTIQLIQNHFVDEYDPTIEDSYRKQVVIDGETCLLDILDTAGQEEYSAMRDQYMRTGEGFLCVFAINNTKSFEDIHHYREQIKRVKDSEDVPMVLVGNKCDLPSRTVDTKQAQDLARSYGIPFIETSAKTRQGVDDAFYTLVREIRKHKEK
Chain of KRAS G12D (P62937 whole entry): as the sequence (P62937 whole entry) above
Chain of KRAS WT (P01116 1-169 isoform P01116-2 limits assumed): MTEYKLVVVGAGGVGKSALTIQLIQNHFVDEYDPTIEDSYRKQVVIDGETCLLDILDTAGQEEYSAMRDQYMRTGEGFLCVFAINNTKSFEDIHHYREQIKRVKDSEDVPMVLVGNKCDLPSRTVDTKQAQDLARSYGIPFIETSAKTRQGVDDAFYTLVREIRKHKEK
Chain of KRAS WT (P62937 whole entry): as the sequence (P62937 whole entry) above
T2 sequence (P01111 whole entry Q61R): as the sequence (P01111 whole entry G12C) above, with C12G, Q61R counted along it
T2 sequence (P62937 whole entry): as the sequence (P62937 whole entry) above
Chain of KRAS G12C (P01116 1-169 isoform P01116-2 G12C limits assumed): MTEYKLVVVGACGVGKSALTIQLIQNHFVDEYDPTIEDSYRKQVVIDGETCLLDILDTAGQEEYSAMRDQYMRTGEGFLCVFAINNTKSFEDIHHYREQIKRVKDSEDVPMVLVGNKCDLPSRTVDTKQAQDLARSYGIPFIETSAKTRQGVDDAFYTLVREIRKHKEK
Chain of KRAS G12C (P62937 whole entry): as the sequence (P62937 whole entry) above
Chain of KRAS G12S (P01116 1-169 isoform P01116-2 G12S limits assumed): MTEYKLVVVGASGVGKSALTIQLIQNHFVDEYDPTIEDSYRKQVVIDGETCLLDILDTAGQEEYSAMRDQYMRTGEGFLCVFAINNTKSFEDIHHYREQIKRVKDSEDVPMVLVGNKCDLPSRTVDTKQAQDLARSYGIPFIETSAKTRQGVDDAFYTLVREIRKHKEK
Chain of KRAS G12S (P62937 whole entry): as the sequence (P62937 whole entry) above
T3 sequence (P01111 whole entry): as the sequence (P01111 whole entry G12C) above, with C12G counted along it
T3 sequence (P62937 whole entry): as the sequence (P62937 whole entry) above
T1 sequence (P01111 whole entry Q61K): as the sequence (P01111 whole entry G12C) above, with C12G, Q61K counted along it
T1 sequence (P62937 whole entry): as the sequence (P62937 whole entry) above
Chain of KRAS G13D (P01116 1-169 isoform P01116-2 G13D limits assumed): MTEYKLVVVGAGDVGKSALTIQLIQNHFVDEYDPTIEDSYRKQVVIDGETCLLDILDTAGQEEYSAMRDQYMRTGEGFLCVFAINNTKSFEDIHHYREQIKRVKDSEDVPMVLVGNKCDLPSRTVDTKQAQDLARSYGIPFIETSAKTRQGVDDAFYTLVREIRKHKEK
Chain of KRAS G13D (P62937 whole entry): as the sequence (P62937 whole entry) above
Chain of KRAS G13C (P01116 1-169 isoform P01116-2 G13C limits assumed): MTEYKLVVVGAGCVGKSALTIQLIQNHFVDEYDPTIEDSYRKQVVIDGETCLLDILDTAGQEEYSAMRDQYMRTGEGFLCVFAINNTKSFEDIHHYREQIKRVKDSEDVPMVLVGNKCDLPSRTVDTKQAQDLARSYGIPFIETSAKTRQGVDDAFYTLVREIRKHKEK
Chain of KRAS G13C (P62937 whole entry): as the sequence (P62937 whole entry) above
Chain of KRAS G12V (P01116 1-169 isoform P01116-2 G12V limits assumed): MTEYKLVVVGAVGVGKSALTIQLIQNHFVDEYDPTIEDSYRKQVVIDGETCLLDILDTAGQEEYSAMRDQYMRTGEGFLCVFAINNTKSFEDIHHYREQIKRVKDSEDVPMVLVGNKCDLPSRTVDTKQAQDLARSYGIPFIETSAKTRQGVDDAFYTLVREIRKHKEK
Chain of KRAS G12V (P62937 whole entry): as the sequence (P62937 whole entry) above
Chain of KRAS Q61H (P01116 1-169 isoform P01116-2 Q61H limits assumed): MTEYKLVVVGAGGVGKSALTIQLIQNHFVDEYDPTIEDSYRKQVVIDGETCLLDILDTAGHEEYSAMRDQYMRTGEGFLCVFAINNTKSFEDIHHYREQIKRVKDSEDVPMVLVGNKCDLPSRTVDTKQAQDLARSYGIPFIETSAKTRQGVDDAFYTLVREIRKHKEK
Chain of KRAS Q61H (P62937 whole entry, the tested form may be a part): as the sequence (P62937 whole entry) above

Structure (SMILES) | IC50 (KRAS G12D) | IC50 (KRAS Q61H) | EC50 (AsPC-1 (K-Ras G12D) [1]) | IC50 (NCI-H358 (K-Ras G12C)) | IC50 (AsPC-1 (K-Ras G12D) [2]) | IC50 (KRAS WT) | IC50 (KRAS G13D) | IC50 (NRAS Q61K) | IC50 (KRAS G13C) | IC50 (KRAS G12C) | IC50 (KRAS G12V) | IC50 (NRAS Q61R) | IC50 (KRAS G12S) | IC50 (NRAS WT) | IC50 (NRAS G12C)
CCn1c(-c2cccnc2[C@H](C)OC)c2c3cc(ccc31)-c1csc(n1)C[C@H](NC(=O)[C@H](C(C)C)N(C)C(=O)N1CCC[C@H](N(C)C(=O)[C@H]3CN3)C1)C(=O)N1CCC[C@H](N1)C(=O)OCC(C)(C)C2 (atropisomer, axis not shown) [Compound 290] | 1 to 10 µM | 0.1 to 1 µM | < 5 µM | 0.01 to 0.1 µM | 1 to 10 µM | 0.1 to 1 µM | 1 to 10 µM | 0.1 to 1 µM | 0.1 to 1 µM | 0.1 to 1 µM | 0.1 to 1 µM | 0.1 to 1 µM | 0.1 to 1 µM | 0.1 to 1 µM | 0.1 to 1 µM
CCn1c(-c2cccnc2[C@H](C)OC)c2c3cc(ccc31)-c1csc(n1)C[C@H](NC(=O)[C@H](C(C)C)N(C)C(=O)N1C3CCC1CN(C(=O)[C@@H]1CN1)C3)C(=O)N1CCC[C@H](N1)C(=O)OCC(C)(C)C2 [Compound 304] | 0.1 to 1 µM | 0.01 to 0.1 µM | < 5 µM | 0.1 to 1 µM | 1 to 10 µM | 0.1 to 1 µM | 1 to 10 µM | 0.1 to 1 µM | 1 to 10 µM | 0.1 to 1 µM | 0.1 to 1 µM | 0.1 to 1 µM | 0.1 to 1 µM | 0.1 to 1 µM | 0.1 to 1 µM
CCn1c(-c2cccnc2[C@H](C)OC)c2c3cc(ccc31)-c1cc(CF)cc(c1)C[C@H](NC(=O)[C@H](C1CCCC1)N1CC[C@]3(CCN(C(=O)[C@@H]4N[C@@H]4C4CC4)C3)C1=O)C(=O)N1CCC[C@H](N1)C(=O)OCC(C)(C)C2 [Compound 321] | 0.1 to 1 µM | 0.1 to 1 µM | < 5 µM | 0.1 to 1 µM | 0.01 to 0.1 µM | 0.1 to 1 µM | 1 to 10 µM | 1 to 10 µM | 0.1 to 1 µM | 0.1 to 1 µM | 0.1 to 1 µM | 1 to 10 µM | 0.1 to 1 µM | 0.1 to 1 µM | 0.1 to 1 µM
CCn1c(-c2cccnc2[C@H](C)OC)c2c3cc(ccc31)-c1csc(n1)C[C@H](NC(=O)[C@H](C(C)C)N(C)C(=O)N1CCC[C@@H](N(C)C(=O)[C@@H]3CN3)C1)C(=O)N1CCC[C@H](N1)C(=O)OCC(C)(C)C2 (atropisomer, axis not shown) [Compound 291] | 0.1 to 1 µM | 0.01 to 0.1 µM | < 5 µM | 0.01 to 0.1 µM | 0.1 to 1 µM | 0.01 to 0.1 µM | 0.1 to 1 µM | 0.01 to 0.1 µM | 0.1 to 1 µM | 0.01 to 0.1 µM | 0.1 to 1 µM | 0.1 to 1 µM | 0.1 to 1 µM | 0.01 to 0.1 µM | 0.01 to 0.1 µM
